Experiments:
Format in all cases: cell-based, human
LCHN-Myoblast = assay: ATP assay on LCHN-Myoblast; details: after 3 days of treatment (FIG. 10C)
Experimental: (§1) Basal media were purchased from HyClone, fetal bovine serum (FBS) was from PeakSerum (Ps-FB3, lot 293Q16), and Glutamax (Glu) and Penicillin/Streptomycin (P/S) were from GIBCO. NCC-CDS-X1 (CIC-DUX4 sarcoma cell line, a generous gift from Tadashi Kondo) cell line was cultured in RPMI with 10% FBS, Glu and P/S, Kitra-SRS (CIC-DUX4 sarcoma cell line, a generous gift from Hidetatsu Otani), 3T3, 293T and C2C12 cell lines were cultured in DMEM/10% FBS/Glu/P/S. The immortalized human myoblast LHCN-M2 cell line was cultured in proliferation medium: F10 supplemented with 20% FBS, 2-mercaptoethanol 1× (GIBCO), 10^−9 M dexamethasone (Sigma), 10 ng/mL bFGF (Peprotech), and Glu/P/S. All cells were cultured at 37° C. in a 5% CO2 atmosphere.
Cell lines were plated in a 96 well dish (1×10^5 cells/well), and the following day were treated with iP300w or its stereoisomers. ATP assays were performed using CellTiter-Glo® Luminescent Cell Viability Assay (Promega) according to the manufacturer's instructions. Luminescence was analyzed on POLARstar Optima Microplate Reader (BMG Labtech, Offenburg, Germany). […]

NCC-CDS-X1 cells = assay: EdU incorporation (FACS) in NCC-CDS-X1 cells
Experimental: EdU labeling and visualization was done using Click-iT® EdU Flow Cytometry Assay Kit (Thermo Fisher Scientific). Briefly, 1×10^5 NCC-CDS-X1 cells were plated in each well of a 24-well plate. The following day, continual treatment with 0.3 μM iP300w was initiated. For the pulse experiment, cells were treated with iP300w for 4 or 24 hours and analyzed 24 hours later. Cells were cultured with EdU ([…]) in the last 4 hours of the experiment, and samples were prepared for analyses according to the manufacture's instruction. FACS analyses were performed on a BD FACSAria instrument and data was analyzed using FlowJo (BD Biosciences). Experiments were performed on at least three biological replicates.

[1] = test system: NCC-CDS-X1 and Kitra-SRS cell cultures; assay: Morphology of monolayer CDS cell cultures; details: both CDS cell lines
Experimental: To evaluate the consequences of iP300w treatment of CDS cells, its effects on both monolayer cultures as well as 3D spheres was determined in both CDS cell lines. Inhibition of proliferation was morphologically apparent as early as 24 hours after iP300w treatment and progressed with time (FIG. 2A). Using the cell viability assay, it was determined that 0.003 μM was the lowest effective concentration on day 2 in both lines (FIG. 2B).

[2] = test system: NCC-CDS-X1 cells (CIC-DUX4 sarcoma cell line); assay: Cell viability (ATP) assay in NCC-CDS-X1 cells
Experimental: as §1
Cell lines were plated in a 96 well dish (1×10^5 cells/well), and the following day were treated with iP300w or its stereoisomers. ATP assays were performed using CellTiter-Glo® Luminescent Cell Viability Assay (Promega) according to the manufacturer's instructions. Luminescence was analyzed on POLARstar Optima Microplate Reader (BMG Labtech, Offenburg, Germany).
The activity of the various iP300w stereoisomers against NCC-CDS-X1 cells was evaluated. Cultures were treated with serial dilutions, ranging from 0.003 μM to 3.0 μM, for up to 96 hours. In cells treated with iP300w, a significant decrease in cell viability was evident at the lowest concentration (0.003 μM) at 48 and 96 hours (FIG. 3A). The effect was dose- and time-dependent. […] (FIG. 2B and FIG. 9).

`CNC(=O)Cn1cc(-c2ccc3c(c2)[C@H](F)C[C@]32NC(=O)N(CC(=O)N(Cc3ccc(F)cc3)[C@@H](C)C(F)(F)F)C2=O)cn1` (single isomer, unassigned) [iP300w] was tested, and the “concentration giving mild suppression of proliferation” value (LCHN-Myoblast) was ≥ 0.3 µM, the “proliferation rate after 4-hour pulse” value (NCC-CDS-X1 cells; 0.3 μM 4-hour pulse, measured 20 hours later) was “significantly reduced proliferation rate” and the “cell cycle recovery after 24-hour pulse” value (NCC-CDS-X1 cells; 0.3 μM treated for 24 hours, 48 hours after the pulse) was “not able to restore the cell cycle”. For the same compound, the “EdU labeling of proliferating cells” value (NCC-CDS-X1 cells; continual treatment 0.3 μM, 48 hours) was “virtually no cells were labelled”, the “time at which inhibition of proliferation is morphologically apparent” value [1] was 24 hours and the “effective concentration on CDS cells” value ([2]; CDS cells, studies herein) was 0.003 µM. The “lowest concentration with significant decrease in cell viability” value ([2]; NCC-CDS-X1, 48 and 96 hours, serial dilutions 0.003 to 3.0 μM) was 0.003 µM, the “lowest effective concentration in cell viability assay” value ([2]; NCC-CDS-X1, day 2) was 0.003 µM and the “activity relative to A-485 in the cell-based assays” value ([2]; cell-based assays) was “about two orders of magnitude more active than A-485”.

— patent publication US12383534B2, “Methods for treating cancer” (REGENTS OF THE UNIVERSITY OF MINNESOTA, priority 2021, dated 2025)
